From US5378473A, “Transdermal administration of short or intermediate half-life benzodiazepines” (Cygnus Therapeutic Systems, priority 1993, dated 1995)

Assay: Estimate of skin flux required to deliver therapeutically effective amounts of alprazolam transdermally
Settings: practical skin area (less than about 100 cm^2); estimated from published pharmacokinetic data
Experimental: Based on the published pharmacokinetic data on alprazolam, applicants estimated that skin flux in the range of at least about 1 μg/cm^2 /hr would be required to deliver therapeutically effective amounts of alprazolam transdermally through a practical skin area (i.e., less than about 100 cm^2). However, when applicants measured the in vitro flux of alprazolam through skin from a propylene glycol solution, they found the flux was several-fold less than the flux required to deliver a therapeutic amount of the drug through such an area of skin. […]

Cc1nnc2n1-c1ccc(Cl)cc1C(c1ccccc1)=NC2 [Alprazolam, 8-chloro-1-methyl-6-phenyl-4H-1,2,4-triazolo(4,3-a)(1,4)benzodiazepine]
skin flux required to deliver therapeutically effective amounts transdermally: at least 1 μg/cm^2 /hr
